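These data come from cells grown in 96-well plates and exposed to compound for 48 hours at five concentrations. At the GI50, growth is halved.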 Calls of active or inactive are those of the source. No stated cut-off is given here; in the data, active = GI50 up to about 1.1 µM and inactive = higher.
Legend:
Test in all cases: NCI-60 cell line screen, 48 h
ACHN = system: ACHN
CAKI-1 = system: CAKI-1
HCC 2998 = system: HCC 2998
HCT-116 = system: HCT-116
HL-60 = system: HL-60
HOP-92 = system: HOP-92
LOX IMVI = system: LOX IMVI
M14 = system: M14
NCI-H226 = system: NCI-H226
RPMI-8226 = system: RPMI-8226
SF-268 = system: SF-268
SK-MEL-2 = system: SK-MEL-2
SK-OV-3 = system: SK-OV-3
SN12C = system: SN12C
SNB-75 = system: SNB-75
SR = system: SR
U-251 = system: U-251
UACC-257 = system: UACC-257
UO-31 = system: UO-31
DU-145 = system: DU-145

Measured: GI50

CCOC(=O)COS(=O)(=O)C(F)(F)F
inactive: ACHN > 100 µM | CAKI-1 > 100 µM | HCC 2998 > 100 µM | HCT-116 34.5 µM | HL-60 > 100 µM | HOP-92 > 100 µM | LOX IMVI 18.8 µM | M14 > 100 µM | NCI-H226 > 100 µM | RPMI-8226 23.9 µM | SF-268 60.4 µM | SK-MEL-2 > 100 µM | SK-OV-3 > 100 µM | SN12C > 100 µM | SNB-75 > 100 µM | SR 24.7 µM | U-251 > 100 µM | UACC-257 > 100 µM | UO-31 > 100 µM

O=C(Cc1ccccc1)N/N=C(/c1nc2ccc([N+](=O)[O-])cc2nc1O)C(O)c1ccco1 (stereo not given)
inactive: ACHN 57.4 µM | CAKI-1 60.8 µM | HCC 2998 > 100 µM | HCT-116 > 100 µM | HL-60 31.8 µM | HOP-92 > 100 µM | LOX IMVI > 100 µM | M14 > 100 µM | NCI-H226 > 100 µM | RPMI-8226 > 100 µM | SF-268 > 100 µM | SK-MEL-2 > 100 µM | SK-OV-3 > 100 µM | SN12C > 100 µM | SNB-75 > 100 µM | SR > 100 µM | U-251 > 100 µM | UACC-257 > 100 µM | UO-31 > 100 µM

C=CCCCCCCCCCP(=O)(c1ccccc1)c1ccc2c(c1)OCCOCCOCCOCCO2 (stereo not given)
inactive: ACHN 16.7 µM | CAKI-1 > 100 µM | HCC 2998 17.3 µM | HCT-116 10.4 µM | HL-60 5.18 µM | HOP-92 > 100 µM | LOX IMVI 15.3 µM | M14 > 100 µM | NCI-H226 13.7 µM | RPMI-8226 11.7 µM | SF-268 15.3 µM | SK-MEL-2 18 µM | SK-OV-3 20.2 µM | SN12C 16.3 µM | SNB-75 18.5 µM | SR 7.16 µM | U-251 15.9 µM | UACC-257 16.7 µM | UO-31 10.8 µM

Cc1c(S(=O)(=O)N/C(=N\O)Nc2ccc(Cl)c(Cl)c2)sc2ccc(Cl)cc12
inactive: ACHN 12.1 µM | CAKI-1 18.5 µM | DU-145 18.8 µM | HCC 2998 19.9 µM | HCT-116 17.8 µM | HL-60 26.7 µM | HOP-92 22.2 µM | LOX IMVI 20.7 µM | M14 21.5 µM | NCI-H226 20.9 µM | RPMI-8226 34.7 µM | SF-268 24.8 µM | SK-MEL-2 18.9 µM | SN12C 18.7 µM | U-251 21.3 µM | UACC-257 19.9 µM | UO-31 20.3 µM

Cc1ccc(/C=C2\NC(=S)NC2=O)cc1
inactive: CAKI-1 > 100 µM | DU-145 > 100 µM | HCC 2998 > 100 µM | HCT-116 > 100 µM | LOX IMVI 40.3 µM | M14 > 100 µM | NCI-H226 > 100 µM | RPMI-8226 > 100 µM | SF-268 > 100 µM | SK-MEL-2 > 100 µM | SK-OV-3 > 100 µM | SN12C > 100 µM | SNB-75 > 100 µM | U-251 > 100 µM | UO-31 > 100 µM

Cc1cc2c(cc1C)[n+]([O-])c(C(=O)CC(=O)C(=O)Nc1c(C(C)C)cccc1C(C)C)c(C)[n+]2[O-]
inactive: ACHN > 100 µM | CAKI-1 > 100 µM | HCC 2998 > 100 µM | HCT-116 > 100 µM | HOP-92 > 100 µM | LOX IMVI > 100 µM | M14 > 100 µM | NCI-H226 > 100 µM | RPMI-8226 > 100 µM | SF-268 > 100 µM | SK-MEL-2 > 100 µM | SK-OV-3 > 100 µM | SN12C > 100 µM | SNB-75 > 100 µM | SR > 100 µM | U-251 > 100 µM | UACC-257 > 100 µM | UO-31 > 100 µM

O=c1[nH]c(=O)n(C2CC(O)C(CO)O2)cc1OCCCc1ccccc1 (stereo not given)
inactive: ACHN > 100 µM | CAKI-1 > 100 µM | DU-145 > 100 µM | HCT-116 > 100 µM | HL-60 > 100 µM | LOX IMVI > 100 µM | M14 > 100 µM | NCI-H226 > 100 µM | RPMI-8226 > 100 µM | SF-268 > 100 µM | SK-OV-3 > 100 µM | SN12C > 100 µM | SNB-75 > 100 µM | U-251 > 100 µM | UACC-257 > 100 µM | UO-31 > 100 µM

CCCCCCCCCCCCCCCCCCNc1nc(=O)n(C2CC(O)C(COP(=O)(O)O)O2)cc1F (stereo not given)
inactive: ACHN 10.8 µM | CAKI-1 15 µM | DU-145 > 57.4 µM | HCC 2998 15 µM | HCT-116 81.7 µM | LOX IMVI 58.9 µM | M14 > 100 µM | NCI-H226 38.9 µM | RPMI-8226 > 63.2 µM | SF-268 49.4 µM | SK-MEL-2 > 100 µM | SK-OV-3 > 100 µM | SN12C > 95.7 µM | SNB-75 > 100 µM | U-251 > 100 µM | UACC-257 > 100 µM | UO-31 31.7 µM

Reference: ChEMBL document CHEMBL1201862, “PubChem BioAssay data set” (2004)
